The target of one experiment is T1, BTK enzyme (recombinant full-length BTK, hBTK) (Homo sapiens, UniProt Q06187).
T1 construct: recombinant protein from baculovirus-transfected Sf9 cells: full-length BTK, 6HIS-tag cleaved; 6HIS (cleaved yes); made in house; host or cells: baculovirus-transfected Sf9 cells
T1 sequence (Q06187 whole entry): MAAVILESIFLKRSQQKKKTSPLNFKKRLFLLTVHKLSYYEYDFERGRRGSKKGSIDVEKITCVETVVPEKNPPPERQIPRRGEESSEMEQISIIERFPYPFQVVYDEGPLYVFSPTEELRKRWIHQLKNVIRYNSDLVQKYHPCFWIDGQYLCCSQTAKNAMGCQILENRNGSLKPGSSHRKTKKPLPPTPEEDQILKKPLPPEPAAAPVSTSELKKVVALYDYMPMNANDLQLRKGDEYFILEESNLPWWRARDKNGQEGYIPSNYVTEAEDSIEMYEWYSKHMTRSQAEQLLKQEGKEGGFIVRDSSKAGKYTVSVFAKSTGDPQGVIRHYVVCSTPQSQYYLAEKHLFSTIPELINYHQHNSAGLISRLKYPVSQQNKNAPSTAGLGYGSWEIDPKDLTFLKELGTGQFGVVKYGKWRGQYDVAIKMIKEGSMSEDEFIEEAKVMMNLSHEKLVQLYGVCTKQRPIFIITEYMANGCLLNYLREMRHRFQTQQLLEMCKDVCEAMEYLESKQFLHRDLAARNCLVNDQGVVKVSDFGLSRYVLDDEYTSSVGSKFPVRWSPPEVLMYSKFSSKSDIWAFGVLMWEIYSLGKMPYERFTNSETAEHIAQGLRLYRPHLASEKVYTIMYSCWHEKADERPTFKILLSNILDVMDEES
In words: Btk enzyme activity assay, LANCE TR-FRET. To be noted: 50 pM hBTK, 2 μM biotin-A5-peptide, 25 μM ATP; 60 minute compound & enzyme incubation; 120 minutes reaction; read-out: BTK binding potency IC50. It is filed as biochemical. As to the method:
Btk Enzyme Activity Assay Methods
BTK enzymatic activity was determined with the LANCE (Lanthanide Chelate Excite) TR-FRET (lime-resolved fluorescence resonance energy transfer) assay. […] Phosphorylation reactions were allowed to proceed for 120 minutes. […] After 60 minutes incubation with detection reagents, reaction plates were read on a PerkinElmer EnVision plate reader using standard TR-FRET protocol. Briefly, excitation of donor molecules (Eu-chelate:anti-phospho-antibody) with a laser light source at 337 nm produces energy that can be transferred to Dylight-650 acceptor molecules if this donor:acceptor pair is within close proximity. Fluorescence intensity at both 665 nm (acceptor) and 615 nm (donor) are measured and a TR-FRET ratio calculated for each well (acceptor intensity/donor intensity). IC50 values were determined by 4 parameter robust fit of TR-FRET ratio values vs. (Log10) compound concentrations.
In general terms: In TR-FRET formats the signal depends on donor and acceptor labels being close together.
In general, IC50 refers to the point on the concentration scale where inhibition reaches its midpoint. As to `NC(=O)c1cnc(N2CCCC3(C2)OCCN(c2ccc(F)cc2)C3=O)c2c1[nH]c1ccccc12` (stereo not drawn) [Example 3, 1-(4-(4-fluorophenyl)-5-oxo-1-oxa-4,8-diazaspiro[5.5]undecan-8-yl)-5H-pyrido[4,3-b]indole-4-carboxamide], the IC50 is 109 nM.

With `NC(=O)c1cnc(N2CCCC3(CCCN(c4ccc(F)cc4)C3=O)C2)c2c1[nH]c1ccccc12` (stereo not drawn) [Example 4, 1-[8-(4-fluorophenyl)-7-oxo-2,8-diazaspiro[5.5]undec-2-yl]-5H-pyrido[4,3-b]indole-4-carboxamide], the IC50 is 17 nM.

As for `CC(C)c1ccc(N2CCCC3(CCCN(c4ncc(C(N)=O)c5[nH]c6ccccc6c45)C3)C2=O)cc1` (stereo not drawn) [Example 5, 1-{8-[4-(1-methylethyl)phenyl]-7-oxo-2,8-diazaspiro[5.5]undec-2-yl}-5H-pyrido[4,3-b]indole-4-carboxamide], the IC50 was 492 nM.

As to `NC(=O)c1cnc(N2CCC[C@@]3(CCCN(c4ccc(F)cc4)C3=O)C2)c2c1[nH]c1ccc(F)cc12` [Example 6, 8-fluoro-1-[(6R)-8-(4-fluorophenyl)-7-oxo-2,8-diazaspiro[5.5]undec-2-yl]-5H-pyrido[4,3-b]indole-4-carboxamide], the IC50 is 853 nM.

Regarding `NC(=O)c1cnc(N2CCC[C@]3(CCCN(c4ccc(F)cc4)C3=O)C2)c2c1[nH]c1ccc(F)cc12` [Example 7, 8-fluoro-1-[(6S)-8-(4-fluorophenyl)-7-oxo-2,8-diazaspiro[5.5]undec-2-yl]-5H-pyrido[4,3-b]indole-4-carboxamide], the IC50 was found to be 34.2 nM.

Consider `NC(=O)c1cnc(N2CCC[C@@]3(CCCN(c4ccc(F)cc4)C3=O)C2)c2c1[nH]c1ccc(C(=O)O)cc12` [Example 8, 4-carbamoyl-1-[(6R)-8-(4-fluorophenyl)-7-oxo-2,8-diazaspiro[5.5]undec-2-yl]-5H-pyrido[4,3-b]indole-8-carboxylic acid], for which the IC50 came out at 12.6 nM.

As for `O=C(NO)c1cnc(N2CCCC3(CCNC3=O)C2)c2c1[nH]c1ccccc12` (stereo not drawn) [Example 9, N-hydroxy-1-(1-oxo-2,7-diazaspiro[4.5]dec-7-yl)-5H-pyrido[4,3-b]indole-4-carboxamide], the half-maximal inhibitory concentration (IC50) turned out to be 384 nM.

For `NC(=O)c1cnc(N2CCC3(CC2)CNC(=O)C3)c2c1[nH]c1ccccc12` [Example 10, 1-(3-oxo-2,8-diazaspiro[4.5]dec-8-yl)-5H-pyrido[4,3-b]indole-4-carboxamide], the IC50 came out at 19.4 nM.

As to `NC(=O)c1cnc(N2CCC3(CCNC3=O)CC2)c2c1[nH]c1ccccc12` [Example 11, 1-(1-oxo-2,8-diazaspiro[4.5]dec-8-yl)-5H-pyrido[4,3-b]indole-4-carboxamide], the IC50 is 31.1 nM.

Consider `NC(=O)c1cnc(N2CCC3(CCNC3)CC2)c2c1[nH]c1ccccc12` [Example 12, 1-(2,8-diazaspiro[4.5]dec-8-yl)-5H-pyrido[4,3-b]indole-4-carboxamide], for which the IC50 turned out to be 35 nM.

Take `CC(C)(C)OC(=O)N1CCC2(CCN(c3ncc(C(N)=O)c4[nH]c5ccccc5c34)CC2)C1` [Example 13, tert-butyl 8-(4-carbamoyl-5H-pyrido[4,3-b]indol-1-yl)-2,8-diazaspiro[4.5]decane-2-carboxylate]: the IC50 worked out at 163 nM.

In the case of `CC(=O)N1CCC2(CCN(c3ncc(C(N)=O)c4[nH]c5ccccc5c34)CC2)C1` [Example 14, 1-(2-acetyl-2,8-diazaspiro[4.5]dec-8-yl)-5H-pyrido[4,3-b]indole-4-carboxamide], the IC50 is 26 nM.

As for `NC(=O)c1cnc(N2CCC3(CCNCC3)C2)c2c1[nH]c1ccccc12` [Example 15, 1-(2,8-diazaspiro[4.5]dec-2-yl)-5H-pyrido[4,3-b]indole-4-carboxamide], the IC50 is 37.4 nM.

On to `CC(C)(C)OC(=O)N1CC2(CCN(c3ncc(C(N)=O)c4[nH]c5ccccc5c34)CC2)C1` [Example 16, tert-butyl 7-(4-carbamoyl-5H-pyrido[4,3-b]indol-1-yl)-2,7-diazaspiro[3.5]nonane-2-carboxylate], for which the IC50 was determined as 98.7 nM.

Consider `NC(=O)c1cnc(N2CCC[C@@]3(C2)C(=O)NC[C@@H]3O)c2c1[nH]c1ccccc12` [Example 18, 1-[(4R,5S)-4-hydroxy-1-oxo-2,7-diazaspiro[4.5]dec-7-yl]-5H-pyrido[4,3-b]indole-4-carboxamide], for which the IC50 was 117 nM.

For the compound `NC(=O)c1cnc(N2CCC3(CC2)CNC3)c2c1[nH]c1ccccc12` [Example 19, 1-(2,7-diazaspiro[3.5]non-7-yl)-5H-pyrido[4,3-b]indole-4-carboxamide], the IC50 came to 22 nM.

Take `CC(=O)N1CC2(CCN(c3ncc(C(N)=O)c4[nH]c5ccccc5c34)CC2)C1` [Example 20, 1-(2-acetyl-2,7-diazaspiro[3.5]non-7-yl)-5H-pyrido[4,3-b]indole-4-carboxamide]: the IC50 amounted to 58.6 nM.

In the case of `CC(C)(C)OC(=O)N1CCC2(C1)CN(c1ncc(C(N)=O)c3[nH]c4ccccc4c13)C2` [Example 21, tert-butyl 2-(4-carbamoyl-5H-pyrido[4,3-b]indol-1-yl)-2,6-diazaspiro[3.4]octane-6-carboxylate], the IC50 came to 435 nM.

With `NC(=O)c1cnc(N2CCC[C@]3(C2)C(=O)NC[C@@H]3O)c2c1[nH]c1ccccc12` [Example 24, 1-[(4R,5R)-4-hydroxy-1-oxo-2,7-diazaspiro[4.5]dec-7-yl]-5H-pyrido[4,3-b]indole-4-carboxamide], the IC50 is 9 nM.

`CC(C)(C)c1ccc(C(=O)N2CCCC3(CCCCN3c3ncc(C(N)=O)c4[nH]c5ccccc5c34)C2)cc1` (stereo not drawn) [Example 25, 1-{8-[(4-tert-butylphenyl)carbonyl]-1,8-diazaspiro[5.5]undec-1-yl}-5H-pyrido[4,3-b]indole-4-carboxamide]: the IC50 was found to be 536 nM.

With `NC(=O)c1cnc(N2CC3(CCNC3)C2)c2c1[nH]c1ccccc12` [Example 26, 1-(2,6-diazaspiro[3.4]oct-2-yl)-5H-pyrido[4,3-b]indole-4-carboxamide], the IC50 is 160 nM.

Consider `CC(=O)N1CCC2(C1)CN(c1ncc(C(N)=O)c3[nH]c4ccccc4c13)C2` [Example 27, 1-(6-acetyl-2,6-diazaspiro[3.4]oct-2-yl)-5H-pyrido[4,3-b]indole-4-carboxamide], for which the IC50 came to 232 nM.

Turning to `CC(C)(C)OC(=O)N1CC2(CCCN(c3ncc(C(N)=O)c4[nH]c5ccccc5c34)C2)C1` [Example 28, tert-butyl 6-(4-carbamoyl-5H-pyrido[4,3-b]indol-1-yl)-2,6-diazaspiro[3.5]nonane-2-carboxylate], the IC50 amounted to 579 nM.

As for `CC(=O)N1CC2(CCCN(c3ncc(C(N)=O)c4[nH]c5ccccc5c34)C2)C1` [Example 29, 1-(2-acetyl-2,6-diazaspiro[3.5]non-6-yl)-5H-pyrido[4,3-b]indole-4-carboxamide], the half-inhibitory concentration (IC50) came to 271 nM.

`NC(=O)c1cnc(N2CCCC3(CCCNC3=O)C2)c2c1[nH]c1ccccc12` (stereo not drawn) [Example 30, 1-(7-oxo-2,8-diazaspiro[5.5]undec-2-yl)-5H-pyrido[4,3-b]indole-4-carboxamide]: the IC50 was determined as 28 nM.

Consider `COC(=O)CCN1CCCC2(CCCN(c3ncc(C(N)=O)c4[nH]c5ccccc5c34)C2)C1=O` (stereo not drawn) [Example 31, methyl 3-[8-(4-carbamoyl-5H-pyrido[4,3-b]indol-1-yl)-1-oxo-2,8-diazaspiro[5.5]undec-2-yl]propanoate], for which the IC50 worked out at 96.8 nM.

On to `NC(=O)c1cnc(N2CCCC3(CCN(c4ccc(F)cc4)C3=O)C2)c2c1[nH]c1ccccc12` (stereo not drawn) [Example 32, 1-[2-(4-fluorophenyl)-1-oxo-2,7-diazaspiro[4.5]dec-7-yl]-5H-pyrido[4,3-b]indole-4-carboxamide], for which the IC50 was found to be 244 nM.

Regarding `NC(=O)c1cnc(N2CCC3(CCCN(c4ccc(F)cc4)C3=O)C2)c2c1[nH]c1ccccc12` (stereo not drawn) [Example 33, 1-[7-(4-fluorophenyl)-6-oxo-2,7-diazaspiro[4.5]dec-2-yl]-5H-pyrido[4,3-b]indole-4-carboxamide], the IC50 was determined as 212 nM.

`CN1CCCC2(CCCN(c3ncc(C(N)=O)c4[nH]c5ccccc5c34)C2)C1=O` (stereo not drawn) [Example 35, 1-(8-methyl-7-oxo-2,8-diazaspiro[5.5]undec-2-yl)-5H-pyrido[4,3-b]indole-4-carboxamide]: the IC50 was 55.2 nM.

With `CC(C)(C)c1ccc(N2CCC3(CCCN(c4ncc(C(N)=O)c5[nH]c6ccccc6c45)C3)C2=O)cc1` (stereo not drawn) [Example 36, 1-[2-(4-tert-butylphenyl)-1-oxo-2,7-diazaspiro[4.5]dec-7-yl]-5H-pyrido[4,3-b]indole-4-carboxamide], the IC50 is 9530 nM.

`NC(=O)c1cnc(N2CCCC3(CCNC(=O)C3)C2)c2c1[nH]c1ccccc12` (stereo not drawn) [Example 37, 1-(8-oxo-2,9-diazaspiro[5.5]undec-2-yl)-5H-pyrido[4,3-b]indole-4-carboxamide]: the IC50 came to 46.4 nM.

With `CC(C)(C)c1ccc(N2CCC3(CCCN(c4ncc(C(N)=O)c5[nH]c6ccccc6c45)C3)CC2=O)cc1` (stereo not drawn) [Example 38, 1-[9-(4-tert-butylphenyl)-8-oxo-2,9-diazaspiro[5.5]undec-2-yl]-5H-pyrido[4,3-b]indole-4-carboxamide], the IC50 turned out to be 420 nM.

Still in this experiment, the particulars now being: BTK binding potency IC50 (nM), 50 pM hBTK, 2 μM biotin-A5-peptide, 25 μM ATP; 60 minute compound & enzyme incubation; 120 minutes reaction.
On to `NC(=O)c1cnc(N2CCCC3(CCNC3=O)C2)c2c1[nH]c1ccccc12` (stereo not drawn) [Example 34, 1-(1-oxo-2,7-diazaspiro[4.5]dec-7-yl)-5H-pyrido[4,3-b]indole-4-carboxamide], for which the IC50 came out at 17.2 nM.

The values are drawn from patent US20180141962A1, “AZACARBAZOLE BTK INHIBITORS” (MERCK SHARP & DOHME CORP., priority 2015, published 2018).
